The values below come from patent publication US10570077B2, “Substituted (4'-hydroxyphenyl)cyclohexane compounds and uses thereof as selective agonists of the estrogen receptor beta isoform” (Marquette University, priority 2013, dated 2020).

The target in assay [1] is T1, ERβ (Homo sapiens (Human), UniProt Q92731). The assay is described as follows: Cell-based ERβ luminescence antagonist assay (+E2). From the text: (§1) ERα and ERβ assay kits for cell-based assays (Indigo Biosciences) allowed for investigation into the functional activity (i.e. agonist and/or antagonist) of the ligands identified to bind based on the initial fluorescence polarization displacement assay. Briefly, the cells contained a luciferase reporter gene that was functionally linked to either the ERα or ERβ-responsive promoter. By quantifying the luciferase expression via luminescence, the change in ER activity could be quantified. […] For the agonist assay, the cells were prepared by warming to 37° C., plated, then the chemicals added. […] The cells were then plated, and the chemicals added. All plates were incubated in a cell culture incubator at 37° C. and 5% CO2 for 22 h. Each assay was performed in duplicate. Luminescence was characterized after removal of the incubating media and introduction of the Detection Substrate using a Molecular Devices SpectraMax M5 microplate reader. Data was fitted using GraphPad Prism and fit to the dose-response (four parameter) equation as follows.

In assay [2] the target is T2, ERα (Homo sapiens (Human), UniProt P03372). Kind of assay: Fluorescence polarization displacement assay (FITC-estradiol tracer). The assay is classed as binding. As to conditions: for affinity for ERα (qualitative): at concentrations as high as 1 μM; for IC50: read-out: IC50 (ERα affinity, fluorescence polarization displacement assay). On the procedure:
([Tr]) was 10 nM. Sample volume was 150 μL. For each experiment the polarization was calibrated with a sample of FITC set at 20 mP. All proper blanks were used, including water for the FITC samples and blank samples containing only 30 nM ERα protein for the remaining data points.
On the technique in general: In fluorescence polarisation assays a small probe gives low polarisation when free and higher when bound to something large.

Assay [3] deals with T1, ERβ. The assay is described as follows: Cell-based ERβ luminescence (luciferase reporter) agonist assay.
Description: as §1
Background: In a reporter assay the amount or activity of a reporter protein is the signal.

Assay [4] deals with T2, ERα. The assay is described as follows: Cell-based ERα luminescence (luciferase reporter) agonist assay.
Description: as §1

The target in assay [5] is T2, ERα. Kind of assay: Cell-based ERα luminescence antagonist assay (+E2). On the procedure: ERα and ERβ assay kits for cell-based assays (Indigo Biosciences) allowed for investigation into the functional activity (i.e. agonist and/or antagonist) of the ligands identified to bind based on the initial fluorescence polarization displacement assay. Briefly, the cells contained a luciferase reporter gene that was functionally linked to either the ERα or ERβ-responsive promoter. By quantifying the luciferase expression via luminescence, the change in ER activity could be quantified. 1-2 mM stocks of the ligands were prepared in d6-DMSO and diluted to final concentrations ranging from 3.2 nM to 2 μM, using the Compound Screening Medium provided in the kit. For the agonist assay, the cells were prepared by warming to 37° C., plated, then the chemicals added. […] The cells were then plated, and the chemicals added. All plates were incubated in a cell culture incubator at 37° C. and 5% CO2 for 22 h. Each assay was performed in duplicate. Luminescence was characterized after removal of the incubating media and introduction of the Detection Substrate using a Molecular Devices SpectraMax M5 microplate reader. Data was fitted using GraphPad Prism and fit to the dose-response (four parameter) equation as follows.

Assay [6] addresses T1, ERβ. Kind of assay: TR-FRET ERβ binding assay. The following applies: TR-FRET tracer displacement. On the procedure: The binding activity of substituted (4′-hydroxyphenyl)cycloalkane compounds was tested using a TR-FRET ERβ binding assay as illustrated in FIG. 12. […] When the tracer used in the assay is bound, then the ratio is high. When the tracer is displaced, the ratio is low. The following compounds were tested.
In general terms: TR-FRET usually uses a lanthanide donor and a delayed reading to cut background.

The mark [7] stands for this setting: fluorescence polarization displacement.
Where [8] appears, read: 160 pM E2 added, read-out: ERβ antagonist IC50.
[9] abbreviates: normalized, read-out: ERα Normalized Agonist.
The mark [10] stands for this setting: normalized, read-out: ERβ Agonist normalized.

Molecules are shown by their SMILES. Several values for one entry are separate records, joined by “and”; a condition that tells them apart may be missing. Equal values may be shown once. Read-outs that look alike come from different tables or passages of the source.

The Kd is the equilibrium constant for the complex coming apart.

T1 sequence (Q92731 whole entry): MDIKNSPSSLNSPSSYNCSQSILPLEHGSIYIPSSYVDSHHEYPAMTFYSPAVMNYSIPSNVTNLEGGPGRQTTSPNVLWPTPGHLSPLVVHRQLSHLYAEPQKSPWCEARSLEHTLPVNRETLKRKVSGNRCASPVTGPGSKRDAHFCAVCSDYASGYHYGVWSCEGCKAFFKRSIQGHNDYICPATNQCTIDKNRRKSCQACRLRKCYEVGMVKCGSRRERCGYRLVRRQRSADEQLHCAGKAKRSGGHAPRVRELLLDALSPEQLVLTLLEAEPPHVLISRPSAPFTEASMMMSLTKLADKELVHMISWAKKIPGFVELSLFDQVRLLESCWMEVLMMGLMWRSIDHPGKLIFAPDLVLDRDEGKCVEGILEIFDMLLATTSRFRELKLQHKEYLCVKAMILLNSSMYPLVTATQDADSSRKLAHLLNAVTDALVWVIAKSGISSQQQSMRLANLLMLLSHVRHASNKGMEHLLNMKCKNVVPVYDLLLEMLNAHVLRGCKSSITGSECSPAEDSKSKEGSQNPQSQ
T2 sequence (P03372 whole entry): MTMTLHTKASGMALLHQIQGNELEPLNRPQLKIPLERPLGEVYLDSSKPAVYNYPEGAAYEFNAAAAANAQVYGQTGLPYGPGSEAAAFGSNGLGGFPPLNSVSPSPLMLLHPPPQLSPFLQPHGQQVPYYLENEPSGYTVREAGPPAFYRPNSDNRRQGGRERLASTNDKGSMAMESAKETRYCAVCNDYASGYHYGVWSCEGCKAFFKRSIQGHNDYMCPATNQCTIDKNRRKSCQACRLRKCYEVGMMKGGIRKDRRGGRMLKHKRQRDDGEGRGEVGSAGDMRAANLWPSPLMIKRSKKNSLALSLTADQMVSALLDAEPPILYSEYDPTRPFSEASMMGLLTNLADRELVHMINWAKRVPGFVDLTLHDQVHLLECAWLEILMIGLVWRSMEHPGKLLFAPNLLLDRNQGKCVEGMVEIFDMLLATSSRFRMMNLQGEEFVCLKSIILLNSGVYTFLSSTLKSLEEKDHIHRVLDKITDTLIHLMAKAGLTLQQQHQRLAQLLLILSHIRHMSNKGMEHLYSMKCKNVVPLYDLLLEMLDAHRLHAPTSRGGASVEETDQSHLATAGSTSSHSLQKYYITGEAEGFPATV

In the case of `OC[C@H]1CCC[C@@H](c2ccc(O)cc2)CC1` (racemic) [Compound 18, cis-1-Hydroxymethyl-4-(4′-hydroxyphenyl)-cycloheptane], the IC50 was determined as 137 ± 100 nM at ERβ [1] (read-out: ERβ antagonist IC50) and 5.4 ± 0.3 nM at ERβ [3]. The Kd on ERα [2] (accurate Kd could not be obtained, estimated) was > 1000 nM.

For `OC[C@H]1CCC[C@@H](c2ccc(O)cc2)CC1` (relative stereo) [Compound 18, cis-1-Hydroxymethyl-4-(4′-hydroxyphenyl)-cycloheptane], the “ERβ antagonist activity (qualitative)” value at ERβ [1] is given as “ERβ antagonist activity”. In addition, the “affinity for ERα (qualitative)” value at ERα [2] is listed as “significant affinity”.

Regarding `C[C@]12CC[C@@H]3c4ccc(O)cc4CC[C@H]3[C@@H]1CC=C2CO` [Compound 2, 3-Hydroxvestra-1,3,5(10),16-tetraene-17-methanol], the “ERα agonist activity (qualitative)” value on ERα [4] is on record as “agonist activity”. The “ERβ antagonist activity (qualitative)” value on ERβ [1] is “not ERβ antagonists”. The same compound registered an IC50 on ERβ [3] of 6.8 ± 0.2 nM.

On to `CCCOC(=O)C1CC[C@H]2[C@@H]3CCc4cc(O)ccc4[C@H]3CC[C@]12C` (some centres unmarked) [Compound 4, n-Propyl 3-hydroxyestra-1,3,5(10)-triene-17-carboxylate], for which the IC50 is 92 ± 1 nM on ERα [4], 160 to 320 nM on ERα [2] and 9.8 ± 2 nM on ERβ [3]. The affinity at ERα [2] (setting [7]), expressed as Kd, was 320 ± 40 nM.

As for `CC[C@H](C)C1=CC[C@H]2[C@@H]3CCc4cc(O)ccc4[C@H]3CC[C@]12C` [Compound 7, (20S) 3-Hydroxy-19,24-dinorchola-1,3,5(10),16-tetraene], the “ERβ antagonist activity (qualitative)” value at ERβ [1] is “ERβ antagonist activity”. The IC50 at ERβ [1] (setting [8]) was 70 ± 15 nM; on ERα [2], 160 to 320 nM; on ERβ [3], 88 ± 9 nM. Further, the “affinity for ERα (qualitative)” value at ERα [2] is given as “significant affinity”. In addition, the Kd on ERα [2] (setting [7]) was found to be 160 ± 10 nM.

Regarding `C[C@@H](CCO)C1=CC[C@H]2[C@@H]3CCc4cc(O)ccc4[C@H]3CC[C@]12C` [Compound 11, (20S) 3-Hydroxy-19,24-Dinorchola-1,3,5(10),16-tetraen-23-ol], at ERβ [1], the “ERβ antagonist activity (qualitative)” value is “ERβ antagonist activity”. Also, the figures for the IC50 at ERβ [1] (setting [8]) and on ERβ [3] were 275 ± 40 nM and 108 ± 67 nM, respectively. In addition, the “affinity for ERα (qualitative)” value at ERα [2] is listed as “significant affinity”. On ERα [2] (setting [7]), this compound displayed a Kd of 320 ± 40 nM.

In the case of `CC1C[C@H](C)C2(CC[C@H]3[C@@H]4CCc5cc(O)ccc5[C@H]4CC[C@@]32C)O1` (some centres unmarked) [Compound 13, 17,23-Epoxy-3-hydroxy-19-norchola-1,3,5(10)-triene], on ERα [4], the “ERα agonist activity (qualitative)” value was “agonist activity” and the IC50 was found to be 484 ± 1 nM. Besides, the “ERβ antagonist activity (qualitative)” value at ERβ [1] was “not ERβ antagonists”. Moreover, the “affinity for ERα (qualitative)” value at ERα [2] is reported as “significant affinity”. Further, the affinity at ERα [2] (setting [7]), expressed as Kd, was 160 ± 10 nM. Also, the IC50 at ERβ [3] came to 111 ± 26 nM.

Turning to `OCC1CCC[C@@H](c2ccc(O)cc2)CC1` (some centres unmarked) [ISP-163], the IC50 was > 10000 nM at ERα [5], 23.5 ± 8 nM at ERβ [6] and > 100000 nM against ERβ [1]. Further, the EC50 on ERα [4] (setting [9]) was 10500 ± 200 nM; on ERα [4] (read-out: ERα Agonist), > 10000 nM; on ERβ [3] (read-out: ERβ Agonist), 30 nM and 33 nM.

As for `O/N=C1/CCCC(c2ccc(O)cc2)CC1` (centres unmarked) [ISP-166], the IC50 against ERα [5] and against ERβ [1] was > 10000 nM in each case. Moreover, the EC50 at ERα [4] (setting [9]) was 350000 ± 250000 nM; on ERα [4] (read-out: ERα Agonist), > 10000 nM; at ERβ [3] (read-out: ERβ Agonist) it was 731 ± 85 nM.

Turning to `OCC1CCC(c2ccc(O)cc2)CC1` (centres unmarked) [ISP-171], on ERα [5], the IC50 is > 10000 nM. For the same compound, the EC50 on ERα [4] (setting [9]) is 700000 ± 80000 nM; at ERα [4] (read-out: ERα Agonist), > 10000 nM.

With `OCCC1CCCC(c2ccc(O)cc2)CC1` (centres unmarked) [ISP-248], the IC50 at ERα [5] was > 10000 nM; on ERβ [6], 36.8 ± 9.2 nM; against ERβ [1], > 10000 nM. In addition, the EC50 was 45000 ± 17000 nM on ERα [4] (setting [9]), > 10000 nM on ERα [4] (read-out: ERα Agonist), 104 nM on ERβ [3] (setting [10]) and 142 ± 17 nM at ERβ [3] (read-out: ERβ Agonist).

In the case of `OC[C@H]1C=CCC(c2ccc(O)cc2)C=C1` (some centres unmarked) [RKP-35c], the IC50 on ERβ [6] stood at 378 ± 97 nM.

In the case of `OCC=C1CCC(c2ccc(O)cc2)CC1` (centres unmarked) [RKP-228], the IC50 on ERβ [6] was 521 ± 87 nM.

Consider `CCC1CCC(c2ccc(O)cc2)CC1` (centres unmarked) [RKP-231 IF], for which the IC50 was > 10000 nM on ERα [5] (read-out: ERα Antagonist (+E2), +E2); 15.2 ± 1.5 nM on ERβ [6]; > 10000 nM on ERβ [1] (read-out: ERβ Antagonist (+E2), +E2). Further, the EC50 at ERα [4] (setting [9]) was 25000 ± 1300 nM; at ERα [4] (read-out: ERα Agonist), > 10000 nM; at ERβ [3] (setting [10]) it was 89 nM; at ERβ [3] (read-out: ERβ Agonist), 93 ± 7 nM.
